# Results from PMC7251097, “Aspartate/asparagine-β-hydroxylase: a high-throughput mass spectrometric assay for discovery of small molecule inhibitors” (Scientific Reports, 2020).
# Counter-ions that a name gives are not always drawn. Like-named read-outs stand apart in the source and are kept apart here.
# Target: T1, His6-AspH315–758 (human aspartate/asparagine-β-hydroxylase, AspH) (Homo sapiens, UniProt Q12797)
# T1 construct: N-Terminally His6-tagged human AspH315–758 (His6-AspH315–758) was produced in E. coli BL21 (DE3) cells; made in house; host or cells: E. coli BL21 (DE3), pET-28a(+) vector
# T1 sequence (Q12797 315-758): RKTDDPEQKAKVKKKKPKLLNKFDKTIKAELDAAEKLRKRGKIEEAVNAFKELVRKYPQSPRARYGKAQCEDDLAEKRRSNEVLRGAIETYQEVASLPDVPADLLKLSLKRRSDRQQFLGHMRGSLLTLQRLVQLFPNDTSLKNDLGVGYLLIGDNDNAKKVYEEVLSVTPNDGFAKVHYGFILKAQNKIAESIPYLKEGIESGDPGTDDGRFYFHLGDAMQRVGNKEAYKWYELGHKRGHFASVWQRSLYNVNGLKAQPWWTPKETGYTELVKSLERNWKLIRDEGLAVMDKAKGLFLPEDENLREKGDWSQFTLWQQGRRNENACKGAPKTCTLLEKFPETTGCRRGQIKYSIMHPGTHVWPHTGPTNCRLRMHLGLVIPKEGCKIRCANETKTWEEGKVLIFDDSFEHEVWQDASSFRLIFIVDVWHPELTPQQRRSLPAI
# Assay: SPE-MS AspH inhibition assay (LOPAC screen at fixed 20 μM and IC50 dose-response), hydroxylation of cyclic peptide hFX-CP101–119
# Assay type: biochemical
# Conditions: for Plate 5 (% inhibition) / Plate 5 (% conversion): plate 5 (Pfitzer), test compounds at fixed 20 μM; for Plate 5 (% conversion): mean conversion DMSO 32.88
# [1] = LOPAC compound at fixed 20 uM, plate 1, normalised to DMSO and 2,4-PDCA controls
# [2] = LOPAC compound at fixed 20 uM, substrate conversion, plate 1
# [3] = LOPAC compound at 20uM, plate 2, normalised to DMSO and 2,4-PDCA controls, read-out: Plate 2 (% inhibition)
# [4] = LOPAC compound at 20uM, plate 2, conversion of substrate peptide
# [5] = LOPAC compound at 20uM, plate 3, conversion of substrate peptide
# [6] = LOPAC Plate 4, compound at 20 uM, substrate conversion
# [7] = LOPAC compound at 20uM, plate 2, normalised to DMSO and 2,4-PDCA controls
Structure (SMILES),Plate 1 (% inhibition) [1],Plate 1 (% conversion) [2],other results
CO/N=C(\C(=O)N[C@@H]1C(=O)N2C(C(=O)O)=C(CSc3nc(=O)c(=O)[nH]n3C)CS[C@H]12)c1csc(N)n1 [Ceftriaxone sodium],-8.63%,38.77%,
Cc1ccc(-c2cc(C(F)(F)F)nn2-c2ccc(S(N)(=O)=O)cc2)cc1 [Celecoxib],,,Plate 5 (% inhibition): -13.08%; Plate 5 (% conversion): 40.77%
CN(C)CCOC(=O)COc1ccc(Cl)cc1 [Centrophenoxine hydrochloride],,,Plate 1 (% conversion): 36.66%; Plate 1 (% inhibition): -2.35%
CC1=C(C(=O)O)N2C(=O)[C@@H](NC(=O)[C@H](N)c3ccccc3)[C@H]2SC1.O [Cephalexin hydrate],14.49%,,
CC(=O)OCC1=C(C(=O)O)N2C(=O)[C@@H](NC(=O)Cc3cccs3)[C@H]2SC1 [Cephalothin sodium],9.86%,32.56%,
CC1=C(C(=O)O)N2C(=O)[C@@H](NC(=O)[C@H](N)C3=CCC=CC3)[C@H]2SC1 [Cephradine],23.03%,28.14%,
O=C(O)COCCN1CCN(C(c2ccccc2)c2ccc(Cl)cc2)CC1 (stereo not shown) [Cetirizine dihydrochloride],,,inhibition at 20 µM [3]: -5.77%
COc1ccc2c(c[n+](C)c3c4cc5c(cc4ccc23)OCO5)c1OC [Chelerythrine chloride],8.68%,,Plate 1 (% conversion): 32.96%
O=C(O)c1cc(O)cc(C(=O)O)n1 [Chelidamic acid],48.94%,19.44%,
Cc1ncsc1CCCl.Cl [Chlormethiazole hydrochloride],,,Plate 1 (% conversion): 33.94%; Plate 1 (% inhibition): 5.75%
CN1C(=O)CCS(=O)(=O)C1c1ccc(Cl)cc1 (stereo not shown) [Chlormezanone],,,Plate 2 (% conversion): 39.39%; inhibition at 20 µM (read-out: Plate 2 (% inhibition)): -10.3%
CCN(CC)CCCC(C)Nc1ccnc2cc(Cl)ccc12 (stereo not shown) [Chloroquine diphosphate],,,Plate 1 (% conversion): 38.59%; Plate 1 (% inhibition): -8.09%
NS(=O)(=O)c1cc2c(cc1Cl)N=CNS2(=O)=O [Chlorothiazide],-4.46%,37.37%,
CN(C)CCCN1c2ccccc2Sc2ccc(Cl)cc21 [Chlorpromazine hydrochloride],-29.45%,45.76%,
CCCNC(=O)NS(=O)(=O)c1ccc(Cl)cc1 [Chlorpropamide],-3.59%,37.08%,
CN(C)CC/C=C1/c2ccccc2Sc2ccc(Cl)cc21 [Chlorprothixene hydrochloride],-27.95%,45.26%,
C[N+](C)(C)CCO.[Br-] [Choline bromide],,,Plate 1 (% conversion): 37.78%; Plate 1 (% inhibition): -5.68%
O=C(O)CCC(=O)O.c1ccc(C2(c3ccccc3)CC2C2=NCCN2)cc1 (stereo not shown) [Cibenzoline succinate],,,Plate 3 (% conversion): 24.00%
"Cc1cc(C2CCCCC2)n(O)c(=O)c1 [Ciclopirox olamine, reference compound]",,,"IC50 (50 nM His6-AspH315–758, 1.0 μM hFX-CP101–119, 3 μM 2OG, 2 μM Fe(II), 50 mM HEPES pH 7.5, 20 °C, mean ± SD, n = 2 (2,4-PDCA n = 10), read-out: IC50): 4.39 ± 0.71 µM"
CN(C(=O)CCCOc1ccc2[nH]c(=O)ccc2c1)C1CCCCC1 [Cilostamide],-8.28%,38.65%,
O=C1CCc2cc(OCCCCc3nnnn3C3CCCCC3)ccc2N1 [Cilostazol],-4.97%,37.54%,
CN/C(=N/CCSCc1nc[nH]c1C)NC#N [Cimetidine],-0.45%,36.02%,
CCn1nc(C(=O)O)c(=O)c2cc3c(cc21)OCO3 [Cinoxacin],-6.95%,38.21%,
CC(C)(Oc1ccc(C2CC2(Cl)Cl)cc1)C(=O)O (stereo not shown) [Ciprofibrate],-0.63%,36.08%,
c1ccc(C2CC2)c(OCC2=NCCN2)c1 [Cirazoline hydrochloride],,,Plate 2 (% conversion) [4]: 38.17%; inhibition at 20 µM [3]: -6.62%
N.N.[Cl][Pt][Cl] [Cisplatin],,,Plate 3 (% conversion) [5]: 31.15%
CN(C)CCCC1(c2ccc(F)cc2)OCc2cc(C#N)ccc21 (stereo not shown) [Citalopram hydrobromide],-13.21%,40.31%,
Cl.Clc1ccc(Cn2c(CN3CCCC3)nc3ccccc32)cc1 [Clemizole hydrochloride],-13.99%,40.57%,

Structure (SMILES),Plate 1 (% inhibition) [1],Plate 1 (% conversion) [2],other results
"O=P(O)(O)C(Cl)(Cl)P(=O)(O)O [Clodronic acid, reference compound]",,,"inhibition at 20 µM (AspH activity, fixed compound concentration 20 μM, initial LOPAC screen, 0.5%v/v DMSO, read-out: Inhibition at 20 µM [%]): 100%; Plate 2 (% conversion) [4]: 2.30%; inhibition at 20 µM [3]: 101%"
CCOC(=O)C(C)(C)Oc1ccc(Cl)cc1 [Clofibrate],-11.71%,39.80%,
CN(C)CCCN1c2ccccc2CCc2ccc(Cl)cc21 [Clomipramine hydrochloride],-22.34%,43.38%,
Clc1cccc(Cl)c1N=C1NCCN1 [Clonidine hydrochloride],-13.86%,40.53%,
C#CCN(C)CCCOc1ccc(Cl)cc1Cl [Clorgyline hydrochloride],,,Plate 3 (% conversion) [5]: 42.76%
Clc1ccccc1C(c1ccccc1)(c1ccccc1)n1ccnc1 [Clotrimazole],-28.43%,45.42%,
CN1CCN(C2=Nc3cc(Cl)ccc3Nc3ccccc32)CC1 [Clozapine],-11.65%,,Plate 1 (% conversion): 39.79%
COc1cc2c(c(OC)c1OC)-c1ccc(OC)c(=O)cc1[C@@H](NC(C)=O)CC2 [Colchicine],,,Plate 1 (% conversion): 37.55%; Plate 1 (% inhibition): -5.00%
C[C@]12CCC(=O)C=C1CC[C@@H]1[C@@H]2CC[C@@]2(C)[C@H]1CC[C@]2(O)C(=O)CO [Cortexolone],,,% conversion [6]: 39.11%
C[C@]12C[C@H](O)[C@H]3[C@@H](CCC4=CC(=O)CC[C@@]43C)[C@@H]1CC[C@@H]2C(=O)CO [Corticosterone],-6.36%,38.01%,
CC(=O)OCC(=O)[C@@]1(O)CC[C@H]2[C@@H]3CCC4=CC(=O)CC[C@]4(C)[C@H]3C(=O)C[C@@]21C [Cortisone 21-acetate],4.10%,34.50%,
C[C@]12CCC(=O)C=C1CC[C@@H]1[C@@H]2C(=O)C[C@@]2(C)[C@H]1CC[C@]2(O)C(=O)CO [Cortisone],-8.46%,38.71%,
C[C@@H](Oc1cc(-c2cnn(C3CCNCC3)c2)cnc1N)c1c(Cl)ccc(F)c1Cl [Crizotinib],,,Plate 5 (% inhibition): -31.92%; Plate 5 (% conversion): 47.18%
CN(C)CCC=C1c2ccccc2C=Cc2ccccc21 [Cyclobenzaprine hydrochloride],-15.86%,41.20%,
O=P1(N(CCCl)CCCl)NCCCO1 (stereo not shown) [Cyclophosphamide monohydrate],,,Plate 1 (% conversion): 38.48%; Plate 1 (% inhibition): -7.77%
CN1CCC(=C2c3ccccc3C=Cc3ccccc32)CC1 [Cyproheptadine hydrochloride],-17.18%,41.64%,
CC(=O)O[C@]1(C(C)=O)CC[C@H]2[C@@H]3C=C(Cl)C4=CC(=O)[C@@H]5C[C@@H]5[C@]4(C)[C@H]3CC[C@@]21C [Cyproterone acetate],-9.70%,39.13%,
NCCSSCCN [Cystamine dihydrochloride],-7.76%,38.48%,
Cl.NCCS [Cysteamine hydrochloride],,,Plate 3 (% conversion) [5]: 40.01%
S=C([S-])OC1CC2CC1C1CCCC21.[K+] [D-609 potassium],,,% conversion: 29.00%
N[C@@H]1CON=C1O [D-Cycloserine],-7.97%,38.55%,
N[C@H](CO)C(=O)O [D-Serine],,,% conversion [6]: 29.64%
OC[C@H]1OC(n2cnc3ccccc32)[C@H](O)[C@@H]1O (stereo partly drawn) [D-ribofuranosylbenzimidazole],,,Plate 2 (% conversion) [4]: 37.89%; Plate 2 (% inhibition) [7]: -5.77%
O=C1NC(=O)c2cc(Nc3ccccc3)c(Nc3ccccc3)cc21 [DAPH],-7.17%,38.28%,
Clc1ccc(N2C[C@H]3CC[C@@H](C2)N3)nn1 [DBO-83],,,Plate 2 (% conversion) [4]: 32.84%; Plate 2 (% inhibition) [7]: 9.30%
CCn1c(=O)[nH]c2cc(Cl)c(Cl)cc21 [DCEBIO],,,Plate 2 (% conversion) [4]: 39.27%; Plate 2 (% inhibition) [7]: -9.89%
Fc1cccc(/C=N/N=C/c2cccc(F)c2)c1 [DFB],,,Plate 3 (% conversion) [5]: 35.73%
